Experimental data reported in the kinase profiling compilation of Christmann-Franck et al. (2016).

Columns and labels:
Assay in all cases: KINOMEscan competition binding
Conditions in all cases: compound 2.0 µM
ACVR2A (human) = ACVR2A (human) (UniProt P27037)
ACVR2B (human) = ACVR2B (human) (UniProt Q13705)
BMPR1A (human) = BMPR1A (human) (UniProt P36894)
BMPR1B (human) = BMPR1B (human) (UniProt O00238)
BMX (human) = BMX (human) (UniProt P51813)
CAMK2A (human) = CAMK2A (human) (UniProt Q9UQM7)
CAMK2G (human) = CAMK2G (human) (UniProt Q13555)
CDK19 (human) = CDK19 (human) (UniProt Q9BWU1)
Chain of CDK19 (human) (Q9BWU1 whole entry, looked up): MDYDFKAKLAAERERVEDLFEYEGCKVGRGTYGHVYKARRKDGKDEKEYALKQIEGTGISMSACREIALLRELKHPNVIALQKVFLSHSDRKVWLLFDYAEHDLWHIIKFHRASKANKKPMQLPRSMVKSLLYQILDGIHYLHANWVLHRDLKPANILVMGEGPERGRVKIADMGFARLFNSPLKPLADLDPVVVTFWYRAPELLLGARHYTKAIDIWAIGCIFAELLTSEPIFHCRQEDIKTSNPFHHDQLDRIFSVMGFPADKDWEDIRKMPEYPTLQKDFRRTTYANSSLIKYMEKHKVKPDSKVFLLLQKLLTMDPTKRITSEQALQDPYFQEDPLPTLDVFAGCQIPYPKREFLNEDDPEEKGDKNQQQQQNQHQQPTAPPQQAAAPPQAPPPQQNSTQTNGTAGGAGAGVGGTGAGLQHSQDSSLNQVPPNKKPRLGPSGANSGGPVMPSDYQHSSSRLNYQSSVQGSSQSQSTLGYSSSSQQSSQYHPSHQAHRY

CDK4 CCND3 (human) = CDK4 CCND3 (human) (UniProt P11802+P30281)
CDK9 (human) = CDK9 (human) (UniProt P50750)
Chain of CDK9 (human) (P50750 whole entry, looked up): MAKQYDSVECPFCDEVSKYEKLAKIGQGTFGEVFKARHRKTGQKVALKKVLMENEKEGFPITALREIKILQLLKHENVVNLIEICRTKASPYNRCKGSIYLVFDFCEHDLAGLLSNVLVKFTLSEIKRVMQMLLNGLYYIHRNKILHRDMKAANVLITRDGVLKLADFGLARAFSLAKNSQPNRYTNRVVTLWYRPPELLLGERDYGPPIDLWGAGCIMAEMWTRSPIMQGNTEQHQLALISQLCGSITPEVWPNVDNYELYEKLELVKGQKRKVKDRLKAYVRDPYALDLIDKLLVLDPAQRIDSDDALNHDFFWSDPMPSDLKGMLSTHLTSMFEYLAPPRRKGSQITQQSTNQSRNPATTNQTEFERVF

CDKL2 (human) = CDKL2 (human) (UniProt Q92772)
CPK1 (P.falciparum) = system: CPK1 (P.falciparum)
CSF1R (human) = CSF1R (human) (UniProt P07333)
CSNK1G1 (human) = CSNK1G1 (human) (UniProt Q9HCP0)
DCLK1 (human) = DCLK1 (human) (UniProt O15075)
GRK4 (human) = GRK4 (human) (UniProt P32298)
Chain of GRK4 (human) (P32298 whole entry, looked up): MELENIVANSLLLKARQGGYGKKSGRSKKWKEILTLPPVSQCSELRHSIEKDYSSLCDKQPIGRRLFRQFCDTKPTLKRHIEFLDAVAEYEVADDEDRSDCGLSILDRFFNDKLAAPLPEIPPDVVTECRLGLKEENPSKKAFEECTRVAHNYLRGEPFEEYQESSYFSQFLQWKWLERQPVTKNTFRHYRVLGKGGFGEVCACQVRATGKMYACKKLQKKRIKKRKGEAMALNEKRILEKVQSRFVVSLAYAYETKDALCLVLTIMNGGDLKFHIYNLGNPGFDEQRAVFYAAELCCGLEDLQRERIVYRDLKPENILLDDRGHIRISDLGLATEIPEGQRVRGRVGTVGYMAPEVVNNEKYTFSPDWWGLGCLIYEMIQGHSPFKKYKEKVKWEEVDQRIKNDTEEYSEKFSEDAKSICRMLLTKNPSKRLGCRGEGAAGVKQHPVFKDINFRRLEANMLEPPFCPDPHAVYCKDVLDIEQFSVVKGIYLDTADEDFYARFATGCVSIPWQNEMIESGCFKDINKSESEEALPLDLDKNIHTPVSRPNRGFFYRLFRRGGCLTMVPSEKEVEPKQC

ICK (human) = ICK (human) (UniProt Q9UPZ9)
INSR (human) = INSR (human) (UniProt P06213)
INSRR (human) = INSRR (human) (UniProt P14616)
IRAK3 (human) = IRAK3 (human) (UniProt Q9Y616)
MAP3K2 (human) = MAP3K2 (human) (UniProt Q9Y2U5)
MAP3K7 (human) = MAP3K7 (human) (UniProt O43318)
MAP4K4 (human) = MAP4K4 (human) (UniProt O95819)
MAPK1 (human) = MAPK1 (human) (UniProt P28482)
MELK (human) = MELK (human) (UniProt Q14680)
[1] = system: MET (human), P08581 [Y1235D]
NTRK1 (human) = NTRK1 (human) (UniProt P04629)
PAK2 (human) = PAK2 (human) (UniProt Q13177)
[2] = system: PIK3CA (human), P42336 [E542K]
Chain of PIK3CA (human), P42336 [E542K] (P42336 whole entry E542K, looked up): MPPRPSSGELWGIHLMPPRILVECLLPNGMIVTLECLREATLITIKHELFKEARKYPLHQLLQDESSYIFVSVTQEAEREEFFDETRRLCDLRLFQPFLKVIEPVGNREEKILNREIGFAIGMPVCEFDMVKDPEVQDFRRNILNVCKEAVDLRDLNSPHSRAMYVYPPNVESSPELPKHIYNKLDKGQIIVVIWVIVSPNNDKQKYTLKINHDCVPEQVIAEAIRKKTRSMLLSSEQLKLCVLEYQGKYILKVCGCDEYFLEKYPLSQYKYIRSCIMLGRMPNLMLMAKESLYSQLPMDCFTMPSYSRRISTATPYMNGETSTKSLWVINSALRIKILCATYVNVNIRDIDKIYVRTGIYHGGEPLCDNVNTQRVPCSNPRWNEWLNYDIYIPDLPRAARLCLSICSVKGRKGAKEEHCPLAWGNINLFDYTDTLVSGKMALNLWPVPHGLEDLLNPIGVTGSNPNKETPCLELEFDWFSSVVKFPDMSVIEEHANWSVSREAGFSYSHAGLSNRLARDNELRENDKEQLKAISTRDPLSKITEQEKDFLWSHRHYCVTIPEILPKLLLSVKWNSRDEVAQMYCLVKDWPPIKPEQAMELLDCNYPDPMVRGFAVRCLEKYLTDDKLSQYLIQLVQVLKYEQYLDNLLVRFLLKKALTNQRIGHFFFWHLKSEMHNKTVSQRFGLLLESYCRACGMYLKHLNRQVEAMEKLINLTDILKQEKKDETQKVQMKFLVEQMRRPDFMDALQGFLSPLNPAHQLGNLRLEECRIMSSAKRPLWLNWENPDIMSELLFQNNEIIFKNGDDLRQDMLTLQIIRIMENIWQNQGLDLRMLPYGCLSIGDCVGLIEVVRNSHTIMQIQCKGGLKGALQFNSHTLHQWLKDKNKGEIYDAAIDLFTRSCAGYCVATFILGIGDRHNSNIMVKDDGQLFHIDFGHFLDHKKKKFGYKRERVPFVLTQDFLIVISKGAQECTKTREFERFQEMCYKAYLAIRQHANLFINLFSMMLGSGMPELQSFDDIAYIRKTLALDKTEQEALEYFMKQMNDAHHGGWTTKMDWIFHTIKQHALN

[3] = system: PIK3CA (human), P42336 [H1047Y]
Chain of PIK3CA (human), P42336 [H1047Y] (P42336 whole entry H1047Y, looked up): as the sequence (P42336 whole entry E542K, looked up) above, with K542E, H1047Y counted along it

PIK3CB (human) = PIK3CB (human) (UniProt P42338)
Chain of PIK3CB (human) (P42338 whole entry, looked up): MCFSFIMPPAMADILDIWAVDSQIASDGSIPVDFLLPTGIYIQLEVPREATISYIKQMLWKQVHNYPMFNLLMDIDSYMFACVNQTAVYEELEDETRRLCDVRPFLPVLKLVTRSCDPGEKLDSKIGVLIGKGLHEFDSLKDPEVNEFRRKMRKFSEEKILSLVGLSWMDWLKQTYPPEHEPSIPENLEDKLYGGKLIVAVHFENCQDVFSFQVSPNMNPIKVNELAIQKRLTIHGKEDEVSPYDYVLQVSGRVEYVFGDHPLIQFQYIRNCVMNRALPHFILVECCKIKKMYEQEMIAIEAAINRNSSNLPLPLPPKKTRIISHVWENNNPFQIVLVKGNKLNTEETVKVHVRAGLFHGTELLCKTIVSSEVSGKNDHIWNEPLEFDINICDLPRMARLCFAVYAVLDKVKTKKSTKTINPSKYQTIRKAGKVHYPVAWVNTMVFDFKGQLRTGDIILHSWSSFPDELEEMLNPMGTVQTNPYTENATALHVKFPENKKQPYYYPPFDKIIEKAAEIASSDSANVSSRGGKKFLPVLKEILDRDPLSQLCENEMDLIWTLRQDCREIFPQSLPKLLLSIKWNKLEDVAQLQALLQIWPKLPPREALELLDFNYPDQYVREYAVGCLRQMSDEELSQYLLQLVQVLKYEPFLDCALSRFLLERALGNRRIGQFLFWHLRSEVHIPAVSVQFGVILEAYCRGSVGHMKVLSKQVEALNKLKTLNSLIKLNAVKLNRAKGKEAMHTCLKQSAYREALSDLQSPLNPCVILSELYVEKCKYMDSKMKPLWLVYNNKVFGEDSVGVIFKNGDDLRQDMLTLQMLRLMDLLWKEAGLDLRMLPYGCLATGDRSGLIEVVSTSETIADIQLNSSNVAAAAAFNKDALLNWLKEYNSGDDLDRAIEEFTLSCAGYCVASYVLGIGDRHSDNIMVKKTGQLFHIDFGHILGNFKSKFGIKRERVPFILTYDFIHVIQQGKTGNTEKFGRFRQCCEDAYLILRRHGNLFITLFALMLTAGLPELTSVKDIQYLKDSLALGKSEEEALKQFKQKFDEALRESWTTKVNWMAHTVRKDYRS

PLK2 (human) = PLK2 (human) (UniProt Q9NYY3)
PRKAA1 (human) = PRKAA1 (human) (UniProt Q13131)
PRKCD (human) = PRKCD (human) (UniProt Q05655)
PTK6 (human) = PTK6 (human) (UniProt Q13882)
ROS1 (human) = ROS1 (human) (UniProt P08922)
SLK (human) = SLK (human) (UniProt Q9H2G2)
STK17A (human) = STK17A (human) (UniProt Q9UEE5)
Chain of STK17A (human) (Q9UEE5 whole entry, looked up): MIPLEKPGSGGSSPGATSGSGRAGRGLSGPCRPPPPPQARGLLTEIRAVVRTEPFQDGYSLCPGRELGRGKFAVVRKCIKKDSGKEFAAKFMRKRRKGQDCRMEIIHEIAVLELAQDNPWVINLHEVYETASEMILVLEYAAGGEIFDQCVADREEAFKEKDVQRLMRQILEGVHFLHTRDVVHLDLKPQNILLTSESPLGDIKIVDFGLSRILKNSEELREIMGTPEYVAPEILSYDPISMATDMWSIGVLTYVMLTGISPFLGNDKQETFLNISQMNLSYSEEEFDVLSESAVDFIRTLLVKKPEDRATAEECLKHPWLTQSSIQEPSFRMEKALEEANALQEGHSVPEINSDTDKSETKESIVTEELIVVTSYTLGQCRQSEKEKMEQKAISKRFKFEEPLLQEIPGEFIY

STK25 (human) = STK25 (human) (UniProt O00506)
STK33 (human) = STK33 (human) (UniProt Q9BYT3)
TGFBR2 (human) = TGFBR2 (human) (UniProt P37173)
TNK1 (human) = TNK1 (human) (UniProt Q13470)
TTK (human) = TTK (human) (UniProt P33981)

Chain of ACVR2B (human) (Q13705 whole entry, looked up): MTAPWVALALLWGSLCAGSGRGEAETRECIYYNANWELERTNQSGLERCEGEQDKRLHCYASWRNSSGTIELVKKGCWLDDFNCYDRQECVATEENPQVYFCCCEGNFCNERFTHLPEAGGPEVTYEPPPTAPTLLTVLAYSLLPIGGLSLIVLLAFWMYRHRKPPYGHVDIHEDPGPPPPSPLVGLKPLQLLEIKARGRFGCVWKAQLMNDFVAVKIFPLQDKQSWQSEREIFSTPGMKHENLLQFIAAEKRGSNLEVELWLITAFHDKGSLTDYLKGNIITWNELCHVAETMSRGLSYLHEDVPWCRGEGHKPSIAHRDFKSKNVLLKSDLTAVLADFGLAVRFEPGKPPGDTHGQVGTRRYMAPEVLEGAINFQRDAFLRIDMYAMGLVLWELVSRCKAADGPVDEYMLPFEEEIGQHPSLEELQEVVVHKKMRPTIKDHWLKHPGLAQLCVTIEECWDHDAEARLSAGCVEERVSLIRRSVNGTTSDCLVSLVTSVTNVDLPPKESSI
Chain of CAMK2A (human) (Q9UQM7 whole entry, looked up): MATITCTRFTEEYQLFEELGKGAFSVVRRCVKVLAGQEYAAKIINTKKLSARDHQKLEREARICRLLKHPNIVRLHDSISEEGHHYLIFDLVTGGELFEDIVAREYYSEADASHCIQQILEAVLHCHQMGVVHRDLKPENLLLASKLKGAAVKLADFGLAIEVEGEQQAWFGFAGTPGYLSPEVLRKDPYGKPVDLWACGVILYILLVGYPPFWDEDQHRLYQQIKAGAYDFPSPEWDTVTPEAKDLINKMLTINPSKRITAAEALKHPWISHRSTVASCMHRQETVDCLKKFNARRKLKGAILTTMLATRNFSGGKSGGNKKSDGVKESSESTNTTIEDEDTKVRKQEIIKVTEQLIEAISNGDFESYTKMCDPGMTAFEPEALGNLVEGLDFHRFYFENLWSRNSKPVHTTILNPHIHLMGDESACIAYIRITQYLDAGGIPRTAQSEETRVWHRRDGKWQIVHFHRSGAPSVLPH

N#Cc1ccc2ncnc(NCCc3ccc4ccccc4c3)c2c1
kinase still bound, per cent of control (ACVR2A (human)): 100% | kinase still bound, per cent of control (ACVR2B (human)): 89% | kinase still bound, per cent of control (BMPR1A (human)): 100% | kinase still bound, per cent of control (BMPR1B (human)): 90% | kinase still bound, per cent of control (BMX (human)): 97% | kinase still bound, per cent of control (CAMK2A (human)): 99% | kinase still bound, per cent of control (CAMK2G (human)): 100% | kinase still bound, per cent of control (CDK19 (human)): 0.8% | kinase still bound, per cent of control (CDK4 CCND3 (human)): 100% | kinase still bound, per cent of control (CDK9 (human)): 100% | kinase still bound, per cent of control (CDKL2 (human)): 71% | kinase still bound, per cent of control (CPK1 (P.falciparum)): 95% | kinase still bound, per cent of control (CSF1R (human)): 77% | kinase still bound, per cent of control (CSNK1G1 (human)): 83% | kinase still bound, per cent of control (DCLK1 (human)): 89% | kinase still bound, per cent of control (GRK4 (human)): 89% | kinase still bound, per cent of control (ICK (human)): 100% | kinase still bound, per cent of control (INSR (human)): 100% | kinase still bound, per cent of control (INSRR (human)): 97% | kinase still bound, per cent of control (IRAK3 (human)): 82% | kinase still bound, per cent of control (MAP3K2 (human)): 80% | kinase still bound, per cent of control (MAP3K7 (human)): 78% | kinase still bound, per cent of control (MAP4K4 (human)): 97% | kinase still bound, per cent of control (MAPK1 (human)): 100% | kinase still bound, per cent of control (MELK (human)): 84% | kinase still bound, per cent of control [1]: 100% | kinase still bound, per cent of control (NTRK1 (human)): 100% | kinase still bound, per cent of control (PAK2 (human)): 82% | kinase still bound, per cent of control [2]: 84% | kinase still bound, per cent of control [3]: 78% | kinase still bound, per cent of control (PIK3CB (human)): 39% | kinase still bound, per cent of control (PLK2 (human)): 98% | kinase still bound, per cent of control (PRKAA1 (human)): 89% | kinase still bound, per cent of control (PRKCD (human)): 91% | kinase still bound, per cent of control (PTK6 (human)): 96% | kinase still bound, per cent of control (ROS1 (human)): 95% | kinase still bound, per cent of control (SLK (human)): 73% | kinase still bound, per cent of control (STK17A (human)): 100% | kinase still bound, per cent of control (STK25 (human)): 100% | kinase still bound, per cent of control (STK33 (human)): 96% | kinase still bound, per cent of control (TGFBR2 (human)): 92% | kinase still bound, per cent of control (TNK1 (human)): 90% | kinase still bound, per cent of control (TTK (human)): 75%
